ChEMBL document CHEMBL4346695, “Thiophenol-formaldehyde triazole causes apoptosis induction in ovary cancer cells and prevents tumor growth formation in mice model” (2019)
The source made the active and inactive calls. No cut-off for these calls is given here.

Legend:
Caov-3 cell line [1] = test: Antiinvasive activity in human Caov3 cells at 1.5 uM incubated for 48 hrs using hematoxylin by microscopy-based transwell assay relative to control; type: functional
Caov-3 cell line [2] = test: Antiinvasive activity in human Caov3 cells at 2.0 uM incubated for 48 hrs using hematoxylin by microscopy-based transwell assay relative to control; type: functional
Caov-3 cell line [3] = test: Inhibition of cell migration in human Caov3 cells assessed as decrease in migration potential at 0.5 to 2.0 uM incubated for 48 hrs by wound healing assay (reference value: 89.65%); type: functional
Caov-3 cell line [4] = test: Inhibition of metastasis in human Caov3 cells assessed as decrease in MMP2 expression level at 0.5 uM incubated for 48 hrs by Western blot analysis; type: functional, cell-based
Caov-3 cell line [5] = test: Inhibition of metastasis in human Caov3 cells assessed as decrease in MMP9 expression level at 0.5 uM incubated for 48 hrs by Western blot analysis; type: functional, cell-based
Caov-3 cell line [6] = test: Inhibition of metastasis in human Caov3 cells assessed as decrease in MMP2 expression level at 0.25 uM incubated for 48 hrs by Western blot analysis; type: functional, cell-based
Caov-3 cell line [7] = test: Inhibition of metastasis in human Caov3 cells assessed as decrease in MMP9 expression level at 0.25 uM incubated for 48 hrs by Western blot analysis; type: functional, cell-based
Caov-3 cell line [8] = test: Inhibition of metastasis in human Caov3 cells assessed as decrease in FAK activation level at 0.5 uM incubated for 48 hrs by Western blot analysis; type: functional, cell-based
Caov-3 cell line [9] = test: Inhibition of metastasis in human Caov3 cells assessed as decrease in FAK phosphorylation level at 0.5 to 5.0 uM incubated for 48 hrs by Western blot analysis; type: functional, cell-based
Caov-3 cell line [10] = test: Antitumor activity against human Caov3 cells xenografted in BALB/c nude mouse assessed as tumor size at 5 mg/kg, ip incubated for 1 hr post tumor implantation and measured after 20 days (reference value: 1956 +/- 367 mm3); type: functional
Caov-3 cell line [11] = test: Antitumor activity against human Caov3 cells xenografted in BALB/c nude mouse assessed as tumor size at 10 mg/kg, ip incubated for 1 hr post tumor implantation and measured after 20 days (reference value: 1956 +/- 367 mm3); type: functional
Caov-3 cell line [12] = test: Antimetastasis activity against human Caov3 cells xenografted in BALB/c nude mouse assessed as reduction of metastasis in liver at 10 mg/kg, ip incubated for 1 hr post tumor implantation and measured after 20 days by H and E staining-based assay; type: functional, organism-based
Caov-3 cell line [13] = test: Antimetastasis activity against human Caov3 cells xenografted in BALB/c nude mouse assessed as reduction of metastasis in intestine at 10 mg/kg, ip incubated for 1 hr post tumor implantation and measured after 20 days by H and E staining-based assay; type: functional, organism-based
Caov-3 cell line [14] = test: Antimetastasis activity against human Caov3 cells xenografted in BALB/c nude mouse assessed as reduction of metastasis in spleen at 10 mg/kg, ip incubated for 1 hr post tumor implantation and measured after 20 days by H and E staining-based assay; type: functional, organism-based
Caov-3 cell line [15] = test: Antimetastasis activity against human Caov3 cells xenografted in BALB/c nude mouse assessed as reduction of metastasis in peritoneal cavity at 10 mg/kg, ip incubated for 1 hr post tumor implantation and measured after 20 days by H and E staining-based assay; type: functional, organism-based
Caov-3 cell line [16] = test: (§1) Antimetastasis activity against human Caov3 cells xenografted in BALB/c nude mouse assessed as reduction in vWF expression in liver lesions at 10 mg/kg, ip incubated for 1 hr post tumor implantation and measured after 20 days by DAB and hematoxylin staining based immunohistochemical analysis relative to control; type: functional; design: scale not given: the % may be the effect or the level left
Caov-3 cell line [17] = test: as §1, with “lungs” for “liver”; type: functional; design: scale not given: the % may be the effect or the level left
Caov-3 cell line [18] = test: as §1, with “intestinal” for “liver”; type: functional; design: scale not given: the % may be the effect or the level left
Caov-3 cell line [19] = test: as §1, with “peritoneal” for “liver”; type: functional; design: scale not given: the % may be the effect or the level left
Caov-3 cell line [20] = test: (§2) Antimetastasis activity against human Caov3 cells xenografted in BALB/c nude mouse assessed as reduction in vWF expression in liver lesions at 5 mg/kg, ip incubated for 1 hr post tumor implantation and measured after 20 days by DAB and hematoxylin staining based immunohistochemical analysis; type: functional, organism-based
Caov-3 cell line [21] = test: (§3) Antimetastasis activity against human Caov3 cells xenografted in BALB/c nude mouse assessed as reduction in vWF expression in lungs lesions at 5 mg/kg, ip incubated for 1 hr post tumor implantation and measured after 20 days by DAB and hematoxylin staining based immunohistochemical analysis; type: functional, organism-based
Caov-3 cell line [22] = test: (§4) Antimetastasis activity against human Caov3 cells xenografted in BALB/c nude mouse assessed as reduction in vWF expression in intestinal lesions at 5 mg/kg, ip incubated for 1 hr post tumor implantation and measured after 20 days by DAB and hematoxylin staining based immunohistochemical analysis; type: functional, organism-based
Caov-3 cell line [23] = test: (§5) Antimetastasis activity against human Caov3 cells xenografted in BALB/c nude mouse assessed as reduction in vWF expression in peritoneal lesions at 5 mg/kg, ip incubated for 1 hr post tumor implantation and measured after 20 days by DAB and hematoxylin staining based immunohistochemical analysis; type: functional, organism-based
Caov-3 cell line [24] = test: as §1, with “infiltration of macrophages” for “vWF expression”; type: functional; design: scale not given: the % may be the effect or the level left
Caov-3 cell line [25] = test: as §1, with “infiltration of macrophages” for “vWF expression”, “lungs” for “liver”; type: functional; design: scale not given: the % may be the effect or the level left
Caov-3 cell line [26] = test: as §1, with “infiltration of macrophages” for “vWF expression”, “intestinal” for “liver”; type: functional; design: scale not given: the % may be the effect or the level left
Caov-3 cell line [27] = test: as §1, with “infiltration of macrophages” for “vWF expression”, “peritoneal” for “liver”; type: functional; design: scale not given: the % may be the effect or the level left
Caov-3 cell line [28] = test: as §2, with “infiltration of macrophages” for “vWF expression”; type: functional, organism-based
Caov-3 cell line [29] = test: as §3, with “infiltration of macrophages” for “vWF expression”; type: functional, organism-based
Caov-3 cell line [30] = test: as §4, with “infiltration of macrophages” for “vWF expression”; type: functional, organism-based
Caov-3 cell line [31] = test: as §5, with “infiltration of macrophages” for “vWF expression”; type: functional, organism-based

Fc1ccccc1-n1cc(COCc2ccccc2S)nn1
Activity (Caov-3 cell line [1]): 39.14% | Activity (Caov-3 cell line [2]): 8.62% | inhibition (INH) (Caov-3 cell line [3]): 6.43% | inhibition (Caov-3 cell line [4]): Active | inhibition (Caov-3 cell line [5]): Active | inhibition (Caov-3 cell line [6]): inactive | inhibition (Caov-3 cell line [7]): inactive | inhibition (Caov-3 cell line [8]): Active | inhibition (Caov-3 cell line [9]): Active | Activity (Caov-3 cell line [10]): 1258 mm3 | Activity (Caov-3 cell line [11]): 213.34 mm3 | Activity (Caov-3 cell line [12]): Active | Activity (Caov-3 cell line [13]): Active | Activity (Caov-3 cell line [14]): Active | Activity (Caov-3 cell line [15]): Active | Activity (Caov-3 cell line [16]): 7% | Activity (Caov-3 cell line [17]): 8% | Activity (Caov-3 cell line [18]): 6% | Activity (Caov-3 cell line [19]): 5% | Activity (Caov-3 cell line [20]): inactive | Activity (Caov-3 cell line [21]): inactive | Activity (Caov-3 cell line [22]): inactive | Activity (Caov-3 cell line [23]): inactive | Activity (Caov-3 cell line [24]): 8% | Activity (Caov-3 cell line [25]): 9% | Activity (Caov-3 cell line [26]): 7% | Activity (Caov-3 cell line [27]): 5% | Activity (Caov-3 cell line [28]): inactive | Activity (Caov-3 cell line [29]): inactive | Activity (Caov-3 cell line [30]): inactive | Activity (Caov-3 cell line [31]): inactive
